Assays:
[1] = test system: TNF-α production in LPS stimulated THP-1 cells; assay: Inhibition of TNF-α production in LPS stimulated THP-1 cells (ELISA); type: cell-based, human; conditions: mean relative secretion, basal = 0%; for TNF-α at 4 μM peptide / TNF-α at 10 μM peptide: stimulated = 100%; for TNF-α at 40 μM peptide: LPS-stimulated level without peptide = 100%
Protocol: (§1) After 6 hours of incubation at +37° C., 5% CO2 and in a humid atmosphere, the cell supernatants were collected, centrifuged and kept frozen in −20° C. until analyzed for TNF-α content by ELISA (R&D Systems, Minneapolis, Minn., USA). The results are presented as mean relative secretion (%), with stimulated TNF-α level without peptide added set to 100% and basal secretion set to 0% (Table 2).
as §1, with “incubation,” for “incubation at +37° C., 5% CO2 and in a humid atmosphere,”, “centrifuged,” for “centrifuged”, “5).” for “2).”

S. aureus (CCUG 1800) = assay: Minimal microbicidal concentration (MMC99) assay, S. aureus; type: cell-based; conditions: 2 hours; for MMC99 μM in 50% SWF: 50% heat inactivated simulated wound fluid
Protocol: Antimicrobial Activity was Measured as Bactericidal Effect on S. aureus Using Minimal Microbicidal Concentration, MMC99, Assay)
S. aureus (#1800; CCUG, Gothenburg, Sweden) cultured on blood-agar plates [Columbia agar (Oxoid, Basingstoke, UK) supplemented with 5% defibrinated horse blood (National Veterinary Institute (SVA), Uppsala, Sweden)] were transferred to brain heart infusion broth (3.7% BHI; Difco, BD Diagnostics, Franklin Lakes, N.J., USA) and incubated in a shaker at 250 rpm+37° C. over night. The culture was thereafter be diluted 1:10 in fresh BHI broth and incubated for additional two hours to reach log-phase growth. The bacteria were pelleted and suspended in 1% BHI medium (BHI broth diluted 100 times in ultra-pure water) to a concentration of 10^7 bacteria/ml as estimated by measuring optical density at 600 nm. Peptides were serially diluted by two-fold steps from 160 μM to 1.25 μM in 1% BHI medium. The peptides (100 μl) were thereafter incubated with bacteria (5 μl á 10^7 bact./ml) for 2 hours at +37° C. Drops (5 μl) of the suspension were placed on blood agar plates. The blood agar plates were incubated over night at +37° C. The MMC99 values, i.e. the lowest peptide concentration needed to achieve a 99% reduction of viable bacteria, were recorded (Table 3). The concentration of the bacterial suspension used in the assay was confirmed by viable counts on blood agar plates.
S. aureus (#1800; CCUG, Gothenburg, Sweden) cultured on blood-agar plates [Columbia agar (Oxoid, Basingstoke, UK) supplemented with 5% defibrinated horse blood (National Veterinary Institute (SVA), Uppsala, Sweden)] were transferred to brain heart infusion broth (3.7% BHI; Difco, BD Diagnostics, Franklin Lakes, N.J., USA) and incubated in a shaker at 250 rpm+37° C. over night. The culture was thereafter be diluted 1:10 in fresh BHI broth and incubated for additional two hours to reach log-phase growth. The bacteria were pelleted and suspended in 1% BHI medium (BHI broth diluted 100 times in ultra-pure water) to a final concentration of 10^7 bacteria/ml as estimated by measuring optical density at 600 nm.
Peptides were serially diluted by two-fold steps from 400 μM to 0.78 μM in either 1% BHI medium or in 50% heat inactivated simulated wound fluid [SWF, containing 1 part 0.1% peptone (Oxoid, Basingstoke, UK) in saline and 1 part fetal bovine serum, diluted 2 times in ultra-pure water].
The peptides (100 μl) were thereafter incubated with bacteria (5 μl a 10^7 bact./ml) for 2 hours at +37° C. Drops (5 μl) of the suspension were placed on blood agar plates. The blood agar plates were incubated over night at +37° C. The MMC99 values, i.e. the lowest peptide concentration needed to achieve a 99% reduction of viable bacteria were recorded (Table 6). The concentration of the bacterial suspension used in the assay was confirmed by viable counts on blood agar plates.
The antimicrobial effects of the peptides 232 (SEQ ID NO: 78), and 220 (SEQ ID NO:67) were analysed by MMC99 (minimal microbicidal concentration) assay against S. aureus (CCUG 1800), MRSA (CCUG 41879), P. aeruginosa (ATCC 15442), E. coli (CCUG 31246), S. pyogenes (CCUG 4207), P. acnes (CCUG 1794T), S. epidermidis (ATCC12228), K. pneumoniae (ATCC 13883), A. baumannii (ATCC 19606), and C. albicans (ATCC 64549). The peptides were purchased from Biopeptide Company (San Diego, Calif., USA) and Bachem AG (Bubendorf, Switzerland) and results are presented in Table 8A and 8B respectively.
Peptides were serially diluted in two different assay medium, 1% BHI medium (brain-heart infusion medium) or 50% heat inactivated simulated wound fluid (SWF), and thereafter incubated with the microorganisms for 2 hours. Drops of the suspension were placed on blood agar plates. The MMC99 values, i.e. the lowest peptide concentration needed to achieve a 99% reduction of viable microorganisms, were recorded. As presented in Table 8, all the peptides have the ability to kill microorganisms frequently appearing in infections. […]

[2] = screen 1, 99% reduction of viable bacteria

Sequence | TNF-α at 4 μM peptide ([1]; screen 2) [%] | TNF-α at 10 μM peptide ([1]; screen 2) [%] | TNF-α at 40 μM peptide ([1]; screen 2) [%] | MMC99 μM in 1% BHI medium (S. aureus (CCUG 1800); screen 2) [µM] | MMC99 μM in 50% SWF (S. aureus (CCUG 1800); screen 2) [µM] | TNF-α at 40 μM peptide ([1]; screen 1) [%] | MMC99 μM in 1% BHI medium (S. aureus (CCUG 1800); [2]) [µM]
KRQSLARTFKQWARNLRKVL [Peptide 215] | 86.6 | 69.6 | 1.3 | 6.25 | 25 |  | 
RLWRRLMRKVR [Peptide 238] | 83.9 | 89.2 | 76.5 | 12.5 | 100 |  | 
TQPDATKCFQWQRNMRKVR [Peptide 103] |  |  |  |  |  | 135 | >160
WRRWLRKMVKRL [Peptide 249] | 91.2 | 78.0 | −0.7 | 12.5 | 6.25 |  | 
CFLWRRLMRKLR [Peptide 228] | 106.6 | 95.4 | 53.6 | 12.5 | 50 |  | 
WCRWLRKMVKAL [Peptide 248] | 87.1 | 80.2 | 24.2 | 25 | 50 |  | 
FQWQRRIRKVR [Peptide 124] |  |  |  |  |  | 128 | 20
KKLWRRWWRKVL [Peptide 244] | 107.7 | 116.7 | 10.7 | 12.5 | 50 |  | 
CWLWRRAMRKVW [Peptide 230] | 119.2 | 135.6 | 80.4 | 25 | 100 |  | 
QSEATKLFQWQRNMRKVR [Peptide 112] |  |  |  |  |  | 101 | >160
QSLARTFKQWARNLRKVL [Peptide 209] | 88.0 | 68.2 | 23.6 | 12.5 | 100 |  | 
QSEATKRFQWLRNLRKVLGP [Peptide 213] | 110.3 | 125.5 | 84.4 | 25 | 200 |  | 
QSLATKCFQWQRNMRKVR [Peptide 111] |  |  |  |  |  | 121 | 20
QTEADKCFQWQRNMRKVR [Peptide 105] |  |  |  |  |  | 87 | >160
FQWKPAIRKVR [Peptide 140] |  |  |  |  |  | 117 | >160

— US20140031296A1, “NEW SYNTHETIC PEPTIDES AND THEIR USE” (PERGAMUM AB, priority 2011, published 2014)
